# Assays:
# Format in all cases: cell-based
# CAT1 [1] = biological target: T1, CAT1 (Homo sapiens, UniProt P30825); experiment: inhibition of [3H]SDMA uptake in HEK-CAT1 cells at […]
# T1 construct: gene SLC7A1; HEK293 cells stably expressing human CAT1
# CAT1 [2] = biological target: T1, CAT1; experiment: inhibition of [3H]SDMA uptake in HEK-CAT1 cells
# OATP4C1 [3] = biological target: T2, OATP4C1 (Homo sapiens, UniProt Q6ZQN7); experiment: inhibition of [3H]SDMA uptake in HEK-OATP4C1 cells
# T2 construct: gene SLCO4C1; HEK293 cells stably expressing human OATP4C1
# T2 sequence (Q6ZQN7 1-724): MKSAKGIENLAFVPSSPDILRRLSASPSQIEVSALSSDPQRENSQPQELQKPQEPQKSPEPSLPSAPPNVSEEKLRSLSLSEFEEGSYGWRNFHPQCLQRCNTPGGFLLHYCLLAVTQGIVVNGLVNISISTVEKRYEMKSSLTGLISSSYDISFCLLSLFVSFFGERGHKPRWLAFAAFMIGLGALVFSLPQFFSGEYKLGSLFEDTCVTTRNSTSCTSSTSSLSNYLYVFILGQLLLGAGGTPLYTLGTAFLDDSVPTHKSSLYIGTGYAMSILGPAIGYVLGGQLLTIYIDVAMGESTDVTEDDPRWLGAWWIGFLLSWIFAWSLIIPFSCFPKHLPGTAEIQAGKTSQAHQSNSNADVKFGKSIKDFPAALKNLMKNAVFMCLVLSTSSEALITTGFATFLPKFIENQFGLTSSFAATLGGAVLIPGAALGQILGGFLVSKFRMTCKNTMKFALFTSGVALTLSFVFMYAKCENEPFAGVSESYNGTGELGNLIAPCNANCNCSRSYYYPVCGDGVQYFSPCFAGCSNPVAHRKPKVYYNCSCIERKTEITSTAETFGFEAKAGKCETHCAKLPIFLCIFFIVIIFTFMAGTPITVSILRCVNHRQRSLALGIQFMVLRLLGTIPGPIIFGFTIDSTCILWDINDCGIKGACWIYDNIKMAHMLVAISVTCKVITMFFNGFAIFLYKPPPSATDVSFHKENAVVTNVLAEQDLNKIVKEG
# OATP4C1 [4] = biological target: T2, OATP4C1; experiment: inhibition of [3H]SDMA uptake in HEK-OATP4C1 cells at […]
# OCT2 = biological target: T3, OCT2 (Homo sapiens, UniProt O15244); experiment: [3H]SDMA uptake in HEK-OCT2 cells; no saturation up to […]
# T3 construct: gene SLC22A2; HEK293 cells stably expressing human OCT2
# T3 sequence (O15244 1-555): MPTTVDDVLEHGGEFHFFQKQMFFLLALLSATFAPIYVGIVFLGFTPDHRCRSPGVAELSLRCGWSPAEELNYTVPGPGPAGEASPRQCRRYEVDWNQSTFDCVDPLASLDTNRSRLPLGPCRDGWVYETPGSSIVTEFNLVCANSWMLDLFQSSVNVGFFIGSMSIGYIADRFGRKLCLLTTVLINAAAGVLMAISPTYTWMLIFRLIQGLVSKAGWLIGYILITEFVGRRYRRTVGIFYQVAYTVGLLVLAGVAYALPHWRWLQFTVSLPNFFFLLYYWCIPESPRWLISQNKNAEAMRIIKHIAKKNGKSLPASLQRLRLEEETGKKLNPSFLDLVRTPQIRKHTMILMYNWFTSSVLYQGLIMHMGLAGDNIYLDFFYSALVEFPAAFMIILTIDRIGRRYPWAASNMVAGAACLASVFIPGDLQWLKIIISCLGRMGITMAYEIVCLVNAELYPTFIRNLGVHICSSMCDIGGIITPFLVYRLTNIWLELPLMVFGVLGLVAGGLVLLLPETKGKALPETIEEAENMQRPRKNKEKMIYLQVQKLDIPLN
# MATE1 = biological target: T4, MATE1 (Homo sapiens, UniProt Q96FL8); experiment: [3H]SDMA uptake kinetics (Km) in HEK-MATE1 cells; conditions: read-out: Km in μM
# T4 construct: gene SLC47A1; HEK293 cells stably expressing human MATE1
# T4 sequence (Q96FL8 1-570): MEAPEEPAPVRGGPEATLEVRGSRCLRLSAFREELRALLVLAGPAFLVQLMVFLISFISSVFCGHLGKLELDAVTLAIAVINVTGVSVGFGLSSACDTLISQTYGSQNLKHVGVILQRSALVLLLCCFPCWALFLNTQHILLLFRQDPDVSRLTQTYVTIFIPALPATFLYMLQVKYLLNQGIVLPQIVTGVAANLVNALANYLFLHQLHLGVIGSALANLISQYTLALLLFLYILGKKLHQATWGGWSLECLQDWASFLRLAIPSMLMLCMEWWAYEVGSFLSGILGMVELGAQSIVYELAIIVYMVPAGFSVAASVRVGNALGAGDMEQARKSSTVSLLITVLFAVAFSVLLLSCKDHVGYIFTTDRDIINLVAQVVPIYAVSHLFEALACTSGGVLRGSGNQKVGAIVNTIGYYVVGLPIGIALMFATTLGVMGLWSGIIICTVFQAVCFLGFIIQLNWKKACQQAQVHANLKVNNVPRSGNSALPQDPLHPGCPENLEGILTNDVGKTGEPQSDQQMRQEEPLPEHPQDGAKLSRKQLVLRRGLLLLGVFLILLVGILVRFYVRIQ
# T1 sequence (P30825 whole entry): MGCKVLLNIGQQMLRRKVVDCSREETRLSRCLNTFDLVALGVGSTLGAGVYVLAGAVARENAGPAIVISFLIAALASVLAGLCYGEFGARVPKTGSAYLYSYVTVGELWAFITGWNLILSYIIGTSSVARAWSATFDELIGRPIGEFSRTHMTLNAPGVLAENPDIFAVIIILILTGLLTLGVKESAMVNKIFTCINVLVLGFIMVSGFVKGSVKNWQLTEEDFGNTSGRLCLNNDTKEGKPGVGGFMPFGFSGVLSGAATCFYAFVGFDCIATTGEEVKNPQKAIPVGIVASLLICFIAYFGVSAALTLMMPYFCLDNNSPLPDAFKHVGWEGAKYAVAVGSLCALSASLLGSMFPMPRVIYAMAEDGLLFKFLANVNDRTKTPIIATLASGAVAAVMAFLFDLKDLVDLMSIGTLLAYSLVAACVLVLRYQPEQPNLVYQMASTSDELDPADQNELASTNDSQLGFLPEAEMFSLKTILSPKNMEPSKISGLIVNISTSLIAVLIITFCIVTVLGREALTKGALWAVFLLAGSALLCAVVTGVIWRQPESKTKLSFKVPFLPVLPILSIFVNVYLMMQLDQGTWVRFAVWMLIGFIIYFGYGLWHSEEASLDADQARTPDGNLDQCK
smiles,measurement,setting,value
CN(C)C(=N)NCCC[C@H](N)C(=O)O [ADMA],inhibition of [3H]SDMA uptake in HEK-CAT1 cells at 50 and 500 μM,CAT1 [1],"all influenced SDMA transport, thereby competing with SDMA for CAT1- or OATP4C1-mediated uptake"
N=C(N)NCCC[C@H](N)C(=O)O [L-arginine],IC50,CAT1 [2],280 µM
same,IC50,OATP4C1 [3],28.8 µM
N=C(N)NCCCC[C@H](N)C(=O)O [L-homoarginine],inhibition of [3H]SDMA uptake in HEK-OATP4C1 cells at 50 and 500 μM,OATP4C1 [4],"all influenced SDMA transport, thereby competing with SDMA for CAT1- or OATP4C1-mediated uptake"
CN=C(NC)NCCC[C@H](N)C(=O)O [symmetric dimethylarginine],[3H]SDMA uptake in HEK-OCT2 cells; no saturation up to 4 000 μM,OCT2,"significant uptake was observed for CAT1-, OATP4C1-, OCT2-, and MATE1-mediated transport"
same,Km,MATE1,1970 µM
